The source of these data is patent publication US8128959B2, “Polymeric pharmaceutical agent for treatment of cancer and method for production of the same” (Hiroshi Maeda, priority 2005, dated 2012).

This data set is described as follows: Solubility in water. Type of data set: physicochemical. From the text: In order to solubilize it in water, the present inventors have conjugated it with amphiphilic polyethylene glycol (PEG) having an average molecular weight of 100-20,000 (preferably about 5,000) (patent document 2) to create a water-soluble derivative thereof.

Turning to `C=CC1=C(C)c2cc3[n-]c(cc4nc(cc5[n-]c(cc1n2)c(C)c5C=C)C(C)=C4CCC(=O)O)c(CCC(=O)O)c3C.[Zn+2]` [ZnPP, zinc-protoporphyrin], the solubility in water entry was “insoluble in water”.
